Measured values taken from ChEMBL document CHEMBL4725397, “SAR study of bisamides as cyclophilin a inhibitors for the development of host-targeting therapy for hepatitis C virus infection” (Bioorg Med Chem, 2020).

Columns and labels:
[1] = Cytotoxicity against human Huh7.5 cells assessed as decrease in cell viability after 3 days by MTT assay; assay type: cell-based; conditions: time 3 day
[2] = Antiviral activity against HCV genotype 2a JFH-1 infected in human Huh7.5 cells after 3 days by renilla luciferase reporter gene assay; assay type: functional, cell-based, Hepatitis C virus subtype 2a; conditions: Hepatitis C virus, JFH-1, Huh7.5, 72 h
[3] = Selectivity index, ratio of CC50 for human Huh7.5 cells to EC50 for genotype 2a HCV JFH-1 infected in human Huh7.5 cells; assay type: toxicity, cell-based
Hepatitis C virus = test: Antiviral activity against 0.05 MOI HCV JFH-1 infected in human Huh7.5 assessed as suppression of viral replication after 4 days post-infection by western blot analysis; assay type: functional, organism-based; conditions: Hepacivirus hominis, time 4.0 day
[4] = biological target: Peptidyl-prolyl cis-trans isomerase A (Homo sapiens, UniProt P62937); test: Binding affinity to Cyclophilin A (unknown origin) by surface plasmon resonance analysis
Peptidyl-prolyl cis-trans isomerase A, sequence (P62937 whole entry): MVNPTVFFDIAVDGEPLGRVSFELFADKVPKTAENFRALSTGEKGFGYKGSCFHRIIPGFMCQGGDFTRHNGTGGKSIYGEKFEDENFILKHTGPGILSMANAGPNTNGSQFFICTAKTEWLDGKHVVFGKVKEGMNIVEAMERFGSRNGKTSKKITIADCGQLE

| Compound | CC50 at 72 h [1] | EC50 [2] | selectivity ratio [3] | Activity (Hepatitis C virus) | Kd [4] |
| --- | --- | --- | --- | --- | --- |
| COc1ccc(CCN(C(=O)Cc2c[nH]c3ccccc23)C(C(=O)NC2CCCCC2)c2cc(OC)c(OC)c(OC)c2)cc1OC (centres undefined) | > 100 µM | 5.3 µM | – | – | – |
| COc1ccc(N(C(=O)Cc2c[nH]c3ccccc23)C(C(=O)NC2CCCCC2)c2ccc([N+](=O)[O-])cc2)cc1OC (centres undefined) | 57.6 µM | 3.2 µM | 18 | – | – |
| NC(=O)c1ncn([C@@H]2O[C@H](CO)[C@@H](O)[C@H]2O)n1 [RIBAVIRIN] | > 100 µM | 16.3 µM | > 6.1 | – | – |
| CCCCCNC(=O)C(c1ccc([N+](=O)[O-])cc1)N(C(=O)Cc1c[nH]c2ccccc12)c1ccc(Br)cc1 (centres undefined) | 7 µM | > 7 µM | – | – | – |
| COc1ccc(N(C(=O)Cc2c[nH]c3ccccc23)C(C(=O)NC2CCCCC2)c2ccc([N+](=O)[O-])cc2)cc1 (centres undefined) | 8.5 µM | 2.5 µM | 3.4 | – | – |
| COc1cccc(CCN(C(=O)c2cc3ccccc3[nH]2)C(C(=O)NC2CCCCC2)c2ccc([N+](=O)[O-])cc2)c1 (centres undefined) | 43.1 µM | 22.2 µM | 1.9 | – | – |
| COc1cccc(CCN(C(=O)Cc2c[nH]c3ccccc23)C(C(=O)NC2CCCCC2)c2ccc([N+](=O)[O-])cc2)c1 (centres undefined) | 27.6 µM | > 27.6 µM | – | – | – |
| CC(C)(C)NC(=O)C(c1ccc([N+](=O)[O-])cc1)N(C(=O)Cc1c[nH]c2ccccc12)c1ccc(Br)cc1 (centres undefined) | 7 µM | > 7 µM | – | – | – |
| COc1ccc(CCN(C(=O)Cc2c[nH]c3ccccc23)C(C(=O)NC2CCCCC2)c2ccc([N+](=O)[O-])cc2)cc1OC (centres undefined) | > 100 µM | 4.2 µM | > 23.8 | Dose-dependent effect | – |
| O=C(NC1CCCCC1)C(c1ccc([N+](=O)[O-])cc1)N(C(=O)Cc1c[nH]c2ccccc12)c1ccccc1 (centres undefined) | 11.9 µM | 6 µM | 2 | – | – |
| COc1ccc(CCC(=O)N(c2ccc(Br)cc2)C(C(=O)NC2CCCCC2)c2ccc([N+](=O)[O-])cc2)cc1 (centres undefined) | 9.8 µM | 6.1 µM | – | – | – |
| O=C(NC1CCCCC1)C(c1ccc([N+](=O)[O-])cc1)N(C(=O)Cc1c[nH]c2ccccc12)c1ccc(Br)cc1 (centres undefined) | 13.8 µM | 6.3 µM | 2.2 | – | – |
| COc1ccc(N(C(=O)c2cc3ccccc3[nH]2)C(C(=O)NC2CCCCC2)c2ccc([N+](=O)[O-])cc2)cc1OC (centres undefined) | > 100 µM | 4.1 µM | > 24.5 | Dose-dependent effect | – |
| COc1ccc(CN(C(=O)Cc2c[nH]c3ccccc23)C(C(=O)NC2CCCCC2)c2ccc([N+](=O)[O-])cc2)cc1 (centres undefined) | 56.3 µM | > 56.3 µM | – | – | – |
| COc1ccc(CCN(C(=O)c2cc3ccccc3[nH]2)C(C(=O)NC2CCCCC2)c2ccc([N+](=O)[O-])cc2)cc1OC (centres undefined) | > 100 µM | 31.9 µM | > 3.1 | – | – |
| CC(C)c1ccc(N(C(=O)Cc2c[nH]c3ccccc23)C(C(=O)NC2CCCCC2)c2ccc([N+](=O)[O-])cc2)cc1 (centres undefined) | – | – | – | – | 4.6 µM |
| COc1cc(C(C(=O)NC2CCCCC2)N(C(=O)Cc2c[nH]c3ccccc23)c2ccc(C(C)C)cc2)cc(OC)c1OC (centres undefined) | > 100 µM | 5.2 µM | – | – | – |
